Experiment [1] deals with Mitogen-activated protein kinase 1 (Homo sapiens, UniProt P28482). As to the kind of experiment: DRUGMATRIX: Protein Serine/Threonine Kinase, ERK2 enzyme inhibition (substrate: Myelin Basic Protein). The conditions noted are these: Not Active = under 50% inhibition at 10 µM. The arrangement: species or system Escherichia coli.
Experiment [2] deals with Aldo-keto reductase family 1 member B1 (Rattus norvegicus, UniProt P07943). Put plainly: biochemical. In kind it is tissue-based, Lens of camera-type eye.
In experiment [3] the target is T1, Receptor-type tyrosine-protein phosphatase C (Homo sapiens, UniProt P08575).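 Also: inhibition of CD45 enzyme activity measured using DiFMUP as substrate; in other assays of this panel Not Active means under 50% inhibition at 10 µM.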
T1 sequence (P08575 whole entry): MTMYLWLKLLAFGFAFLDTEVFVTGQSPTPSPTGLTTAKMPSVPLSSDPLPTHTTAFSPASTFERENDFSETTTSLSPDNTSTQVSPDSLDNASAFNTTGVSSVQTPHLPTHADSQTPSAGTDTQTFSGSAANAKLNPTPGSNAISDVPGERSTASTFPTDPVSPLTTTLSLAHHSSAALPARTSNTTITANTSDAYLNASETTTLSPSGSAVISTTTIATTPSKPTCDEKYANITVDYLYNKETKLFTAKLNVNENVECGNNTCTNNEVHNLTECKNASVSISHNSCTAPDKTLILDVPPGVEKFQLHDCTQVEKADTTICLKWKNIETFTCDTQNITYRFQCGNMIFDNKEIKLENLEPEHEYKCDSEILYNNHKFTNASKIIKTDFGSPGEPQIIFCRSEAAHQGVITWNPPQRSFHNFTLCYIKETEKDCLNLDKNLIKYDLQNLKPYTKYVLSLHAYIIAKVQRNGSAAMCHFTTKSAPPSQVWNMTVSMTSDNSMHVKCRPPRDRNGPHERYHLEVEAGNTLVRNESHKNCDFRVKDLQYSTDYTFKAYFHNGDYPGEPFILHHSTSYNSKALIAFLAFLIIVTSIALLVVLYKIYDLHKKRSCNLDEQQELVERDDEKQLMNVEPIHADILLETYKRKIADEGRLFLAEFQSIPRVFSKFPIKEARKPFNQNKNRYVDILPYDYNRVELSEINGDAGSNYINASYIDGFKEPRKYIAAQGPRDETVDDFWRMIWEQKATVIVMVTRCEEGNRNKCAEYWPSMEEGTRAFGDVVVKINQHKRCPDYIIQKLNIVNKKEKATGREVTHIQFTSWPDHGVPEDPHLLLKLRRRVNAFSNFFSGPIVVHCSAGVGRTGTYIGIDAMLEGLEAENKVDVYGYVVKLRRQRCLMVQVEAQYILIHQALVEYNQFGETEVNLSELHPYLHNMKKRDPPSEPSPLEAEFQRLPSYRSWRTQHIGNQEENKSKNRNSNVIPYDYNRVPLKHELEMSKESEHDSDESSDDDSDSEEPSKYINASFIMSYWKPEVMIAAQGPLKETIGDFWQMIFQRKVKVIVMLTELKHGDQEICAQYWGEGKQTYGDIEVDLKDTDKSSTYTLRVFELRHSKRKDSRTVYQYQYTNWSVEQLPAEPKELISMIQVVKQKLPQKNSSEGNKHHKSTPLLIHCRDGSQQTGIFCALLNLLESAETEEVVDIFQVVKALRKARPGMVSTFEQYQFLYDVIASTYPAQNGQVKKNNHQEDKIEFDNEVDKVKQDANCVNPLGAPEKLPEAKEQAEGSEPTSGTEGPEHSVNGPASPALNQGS
The arrangement: species or system Escherichia coli.

For a further experiment, the target named is D(3) dopamine receptor (Homo sapiens, UniProt P35462). Put plainly: DRUGMATRIX: Dopamine D3 radioligand binding (ligand: [3H] Spiperone). The format is cell membranes, CHO, Membrane.
D(3) dopamine receptor, sequence (P35462 whole entry): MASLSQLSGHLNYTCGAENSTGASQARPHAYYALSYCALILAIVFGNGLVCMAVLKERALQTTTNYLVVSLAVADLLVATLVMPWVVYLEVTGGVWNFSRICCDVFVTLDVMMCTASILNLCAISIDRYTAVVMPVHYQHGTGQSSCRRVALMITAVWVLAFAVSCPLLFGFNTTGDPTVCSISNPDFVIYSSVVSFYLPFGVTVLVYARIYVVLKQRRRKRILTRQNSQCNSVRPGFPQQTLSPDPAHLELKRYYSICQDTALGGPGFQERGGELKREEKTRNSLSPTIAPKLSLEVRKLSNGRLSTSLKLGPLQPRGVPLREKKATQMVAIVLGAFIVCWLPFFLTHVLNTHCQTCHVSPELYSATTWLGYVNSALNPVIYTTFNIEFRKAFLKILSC
The next experiment has as its target T2, Glucocorticoid receptor (Homo sapiens, UniProt P04150). Also: in other assays of this panel Not Active means under 50% inhibition at 10 µM.
T2 sequence (P04150 whole entry): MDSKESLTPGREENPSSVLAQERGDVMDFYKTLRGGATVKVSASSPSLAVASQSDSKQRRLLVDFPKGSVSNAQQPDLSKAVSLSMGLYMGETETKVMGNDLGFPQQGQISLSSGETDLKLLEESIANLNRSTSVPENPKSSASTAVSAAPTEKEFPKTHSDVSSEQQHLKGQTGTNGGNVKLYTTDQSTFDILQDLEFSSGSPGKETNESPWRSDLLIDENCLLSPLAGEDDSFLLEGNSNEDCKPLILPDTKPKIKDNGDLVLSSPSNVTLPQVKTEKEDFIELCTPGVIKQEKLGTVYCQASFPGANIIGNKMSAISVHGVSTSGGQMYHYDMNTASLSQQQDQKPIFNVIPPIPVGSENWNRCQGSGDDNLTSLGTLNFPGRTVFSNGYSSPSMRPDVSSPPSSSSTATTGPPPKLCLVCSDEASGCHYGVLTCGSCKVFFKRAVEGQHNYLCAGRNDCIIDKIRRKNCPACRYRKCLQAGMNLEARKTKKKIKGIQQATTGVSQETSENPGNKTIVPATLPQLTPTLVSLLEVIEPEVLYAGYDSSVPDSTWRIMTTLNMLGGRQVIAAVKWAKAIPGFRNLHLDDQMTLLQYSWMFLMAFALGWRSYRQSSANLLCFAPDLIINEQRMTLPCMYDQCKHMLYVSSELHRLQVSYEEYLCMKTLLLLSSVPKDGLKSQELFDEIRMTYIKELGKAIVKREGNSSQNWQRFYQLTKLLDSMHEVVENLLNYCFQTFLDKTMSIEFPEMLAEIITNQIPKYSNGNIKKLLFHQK
The settings on record: hela s3.

A further experiment has as its target Melanocortin receptor 5 (Homo sapiens, UniProt P33032). In kind it is cell membranes, HEK293, Membrane. The settings on record: hek293. Also: in other assays of this panel Not Active means under 50% inhibition at 10 µM.

The source of these data is ChEMBL document CHEMBL1909046, “DrugMatrix in vitro pharmacology data”.

*1 amine or outer side, *2 acyl side, *3 side chain or, on linkers, in order; H or OH if unused. Where a SMILES comes first, the peptide text is derived from it. Bridges are numbered along the chain shown (N, C = ends). Roman numbers before positions name the chains, in order. [ ]: non-standard residue; d: D form. Actinocin(1to9) = Cc1c2oc3c(C)ccc(C(=O)[*:2])c3nc-2c(C(=O)[*:1])c(N)c1=O; NMeV = CN[C@H](C(=O)O)C(C)C; Sar = CNCC(=O)O

Mitogen-activated protein kinase 1, sequence (P28482 whole entry): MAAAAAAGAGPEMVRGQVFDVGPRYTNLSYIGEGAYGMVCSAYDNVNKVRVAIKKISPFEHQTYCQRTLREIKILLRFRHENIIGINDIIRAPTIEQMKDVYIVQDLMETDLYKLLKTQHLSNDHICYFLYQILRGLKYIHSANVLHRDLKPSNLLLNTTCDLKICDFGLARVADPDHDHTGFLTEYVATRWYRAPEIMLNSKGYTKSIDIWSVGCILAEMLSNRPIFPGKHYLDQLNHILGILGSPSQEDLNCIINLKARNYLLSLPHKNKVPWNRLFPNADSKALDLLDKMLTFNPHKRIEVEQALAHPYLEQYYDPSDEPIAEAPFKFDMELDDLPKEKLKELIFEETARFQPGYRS
Melanocortin receptor 5, sequence (P33032 whole entry): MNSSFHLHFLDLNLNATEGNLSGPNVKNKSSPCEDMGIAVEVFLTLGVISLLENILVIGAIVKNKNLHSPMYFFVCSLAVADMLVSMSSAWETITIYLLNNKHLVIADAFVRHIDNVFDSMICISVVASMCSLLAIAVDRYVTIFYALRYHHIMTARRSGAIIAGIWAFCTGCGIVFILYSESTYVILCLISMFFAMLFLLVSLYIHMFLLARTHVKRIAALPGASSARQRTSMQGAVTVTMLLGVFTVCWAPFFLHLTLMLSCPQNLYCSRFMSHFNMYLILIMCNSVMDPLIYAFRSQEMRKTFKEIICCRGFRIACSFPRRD

Regarding CADMIUM ACETATE, the half-maximal inhibitory concentration (IC50) entry (in experiment [1]; in experiment [2]; in experiment [3]; on D(3) dopamine receptor (cho); against Glucocorticoid receptor; against Melanocortin receptor 5) was “Not Active” each time. Further, the Ki entry (in experiment [1]; in experiment [2]; in experiment [3]; on D(3) dopamine receptor (cho); at Glucocorticoid receptor; on Melanocortin receptor 5) was “Not Active” each time.
For `CC(C)[C@@]1(NC(=O)[C@@H]2C[C@@H]3c4cccc5[nH]cc(c45)C[C@H]3N(C)C2)O[C@@]2(O)[C@@H]3CCCN3C(=O)[C@H](Cc3ccccc3)N2C1=O.CS(=O)(=O)O` [DIHYDROERGOCRISTINE MESYLATE], the IC50 entry in experiment [1] is “Not Active”; in experiment [2], “Not Active”; in experiment [3], “Not Active”; on D(3) dopamine receptor (read-out: IC50), 0.00229 µM; on Glucocorticoid receptor, “Not Active”; against Melanocortin receptor 5, “Not Active”. Moreover, the Ki at D(3) dopamine receptor (read-out: Ki) stood at 0.000777 µM.
Turning to LIPOPOLYSACCHARIDE E. COLI O55:B5, the IC50 in experiment [1] (read-out: IC50) was 0.321 µM; in experiment [2] it was “Not Active”; in experiment [3], “Not Active”; at D(3) dopamine receptor (cho), “Not Active”; against Glucocorticoid receptor it was “Not Active”; on Melanocortin receptor 5, “Not Active”. The Ki result (in experiment [2]; in experiment [3]; on D(3) dopamine receptor (cho); at Glucocorticoid receptor; at Melanocortin receptor 5) was “Not Active” in each case.
As for `Nc1c(Br)cc(Br)cc1CN[C@H]1CC[C@H](O)CC1` [AMBROXOL], the IC50 entry (in experiment [1]; in experiment [2]; in experiment [3]; on D(3) dopamine receptor (cho); at Glucocorticoid receptor; at Melanocortin receptor 5) was “Not Active” each time.
Turning to `NCCCCCC(=O)O` [AMINOCAPROIC ACID], the IC50 result (in experiment [1]; in experiment [2]; in experiment [3]; at D(3) dopamine receptor (cho); against Glucocorticoid receptor; against Melanocortin receptor 5) was “Not Active” each time.
On to `Cc1c(C)c2c(c(C)c1O)CC[C@@](C)(CCC[C@H](C)CCC[C@H](C)CCCC(C)C)O2` [ALPHA-TOCOPHEROL], for which the IC50 entry (in experiment [1]; in experiment [2]; in experiment [3]; on D(3) dopamine receptor (cho); against Glucocorticoid receptor; against Melanocortin receptor 5) was “Not Active” throughout.
In the case of `Cc1cc(C(C#N)c2ccc(Cl)cc2)c(Cl)cc1NC(=O)c1cc(I)cc(I)c1O` (stereo not given) [CLOSANTEL], the IC50 is 1.43 µM in experiment [1] (read-out: IC50); “Not Active” in experiment [2]; “Not Active” in experiment [3]; “Not Active” on D(3) dopamine receptor (cho); “Not Active” against Glucocorticoid receptor; “Not Active” against Melanocortin receptor 5.
As to `CNNCc1ccc(C(=O)NC(C)C)cc1` [PROCARBAZINE], the 50% inhibitory concentration (IC50) result (in experiment [1]; in experiment [2]; in experiment [3]; on D(3) dopamine receptor (cho); on Glucocorticoid receptor; against Melanocortin receptor 5) was “Not Active” each time.
For `Cc1ccc(/N=C/N(C)/C=N/c2ccc(C)cc2C)c(C)c1` [AMITRAZ], the IC50 entry (in experiment [1]; in experiment [2]; in experiment [3]; on D(3) dopamine receptor (cho); against Glucocorticoid receptor; against Melanocortin receptor 5) was “Not Active” in each case.
`Cc1ccc2cc3c(ccc4ccccc43)c3c2c1CC3` [3-METHYLCHOLANTHRENE]: the IC50 entry (in experiment [1]; in experiment [2]; in experiment [3]; at D(3) dopamine receptor (cho); against Glucocorticoid receptor; against Melanocortin receptor 5) was “Not Active” each time.
Take `CNCCc1ccccn1` [BETAHISTINE]: the 50% inhibitory concentration (IC50) result (in experiment [1]; in experiment [2]; in experiment [3]; on D(3) dopamine receptor (cho); at Glucocorticoid receptor; against Melanocortin receptor 5) was “Not Active” in each case.
Consider `OC(Cn1cncn1)(Cn1cncn1)c1ccc(F)cc1F` [FLUCONAZOLE], for which the IC50 entry (in experiment [1]; in experiment [2]; in experiment [3]; on D(3) dopamine receptor (cho); against Glucocorticoid receptor; against Melanocortin receptor 5) was “Not Active” in each case.
As for `Cc1c2oc3c(C)ccc(C(=O)N[C@@H]4C(=O)N[C@H](C(C)C)C(=O)N5CCC[C@H]5C(=O)N(C)CC(=O)N(C)[C@@H](C(C)C)C(=O)O[C@@H]4C)c3nc-2c(C(=O)N[C@@H]2C(=O)N[C@H](C(C)C)C(=O)N3CCC[C@H]3C(=O)N(C)CC(=O)N(C)[C@@H](C(C)C)C(=O)O[C@@H]2C)c(N)c1=O` [DACTINOMYCIN] (I: T[dV]P[Sar][NMeV] / II: T[dV]P[Sar][NMeV]; ester I:1-I:C, II:1-II:C; linker I:N-II:N via Actinocin(1to9)), the IC50 result (in experiment [1]; in experiment [2]; in experiment [3]; on D(3) dopamine receptor (cho); on Glucocorticoid receptor; against Melanocortin receptor 5) was “Not Active” throughout.
With `Nc1nc(N)nc(-c2cc(Cl)ccc2Cl)n1.O=C(O)/C=C\C(=O)O` [IRSOGLADINE MALEATE], the IC50 entry (in experiment [1]; in experiment [2]; in experiment [3]; at D(3) dopamine receptor (cho); on Glucocorticoid receptor; against Melanocortin receptor 5) was “Not Active” each time.
As for `Nc1ncn([C@@H]2O[C@H](CO)[C@@H](O)[C@H]2O)c(=O)n1` [AZACITIDINE], the IC50 entry (in experiment [1]; in experiment [2]; in experiment [3]; at D(3) dopamine receptor (cho); against Glucocorticoid receptor; on Melanocortin receptor 5) was “Not Active” each time.
Regarding `CC(NC(C)(C)C)C(=O)c1cccc(Cl)c1` (stereo not given) [BUPROPION], the IC50 result (in experiment [1]; in experiment [2]; in experiment [3]; at D(3) dopamine receptor (cho); against Glucocorticoid receptor; against Melanocortin receptor 5) was “Not Active” in each case.
With `Cc1cc(C2CCCCC2)n(O)c(=O)c1` [CICLOPIROX], the IC50 entry (in experiment [1]; in experiment [2]; in experiment [3]; at D(3) dopamine receptor (cho); on Glucocorticoid receptor; at Melanocortin receptor 5) was “Not Active” throughout.
In the case of `CC1(C)S[C@@H]2[C@H](NC(=O)Cc3ccccc3)C(=O)N2[C@H]1C(=O)O` [PENICILLIN G], the IC50 entry (in experiment [1]; in experiment [2]; in experiment [3]; on D(3) dopamine receptor (cho); against Glucocorticoid receptor; against Melanocortin receptor 5) was “Not Active” in each case.

For orientation: IC50 means the concentration needed to halve the response being measured. The Ki is the dissociation constant of the complex between target and ligand, obtained from inhibition or displacement.
